Assay results reported in US20250129091A1, “THIENOPYRROLOTRIAZINE COMPOUNDS, THEIR PREPARATION AND THEIR THERAPEUTIC USE” (Sanofi, priority 2022, published 2025).
Where a name gives a salt, the structure may show the parent alone. Read-outs that look alike come from different tables or passages of the source.

Assays:
[1] = test system: TNF-α secretion; assay: TNF-α secretion assay (PMA-differentiated THP-1 cells, LPS-triggered, MSD readout); assay type: cell-based; settings: Homo sapiens, LPS 24 h; for inhibition at 3 µM: compound at 3 μM; for inhibition at 10 µM: compound at 10 μM
Procedure: Monocytic THP-1 cells (DSMZ) were maintained in RPMI media (RPMI 1640 Medium (1×) +10% FBS, biowest S181H). Cells were then differentiated at 160,000 cells per well in 96-well flat bottom cell culture plates with RPMI+0.1% Bovine Serum Albumin solution and 0.5 μM phorbol 12-myristate 13-acetate (PMA; Sigma, ref:P8139) overnight at 37° C. Experimental compounds were prepared and added as described above. TNF-α secretion was triggered by the addition of 0.5 μg/mL LPS (invivoGen, tlrl-3pelps) and cells were incubated for 24 h. 2.5 μL supernatant was removed, and TNF-α levels were monitored using an MSD assay (mesoscale, K15049) according to manufacturers' instructions.
(§1) IC50 values were calculated from the plot of percentage of inhibition versus the inhibitor concentration by a logistics fit according to: y=A2+(A1−A2)/(1+(x/IC50)^p) where y is the %-inhibition at the inhibitor concentration, x. A1 is the lowest inhibition value, i.e., 0%, and A2 the maximum inhibition value, i.e., 100%. The exponent, p, is the Hill coefficient. The curve fitting was conducted with an internally developed software.

[2] = test system: NLRP3 inflammasome; assay: IL-1β secretion assay (LPS-primed, nigericin-activated THP-1 cells, MSD readout); assay type: cell-based; settings: Homo sapiens, read-out: IL1b IC50
Procedure: Monocytic THP-1 cells (DSMZ) were maintained in RPMI media (RPMI 1640 Medium (1×) +10% FBS, Eurobio CVFSVFOO—OU). Cells were then plated at 16,000 cells per well in 96-well round bottom cell culture plates (TPP, ref 92097) and maintained with RPMI and 0.1% Bovine Serum Albumin solution. Activation of the NLRP3 inflammasome requires both an NF-kB-dependent priming step and the addition of a NLRP3 activator. The priming step was induced by LPS (10 ng/mL, Sigma, ref:L4391) for 3 h at 37° C., then compound, in a 1:3.10 serial dilution series in DMSO 1:100, and the activator nigericin (Sigma Aldrich, ref: SML1779) 10 μM (final concentration) were added to the cells and co-incubated for 2 h. 50 μL supernatant was removed, and IL-1β levels were monitored using an MSD assay (Electro Chemical Luminescence Immunoassay (ECLI) according to manufacturers' instructions.
as §1

For `CC(C)c1nn(CC(=O)N[C@@H]2CCCN(C)C2)c(=O)c2cc3cc(Br)sc3n12` [Example 8, (R)-2-(2-bromo-8-isopropyl-5-oxothieno[3′,2′:4,5]pyrrolo[1,2-d][1,2,4]triazin-6(5H)-yl)-N-(1-methylpiperidin-3-yl)acetamide], the inhibition at 3 µM [1] was -10%, the inhibition at 10 µM [1] was -21.8% and the IC50 ([2]; THP-1, LPS-primed) was 801 nM.

For `C=O.CC(C)c1nn(CC(=O)N[C@@H]2CCCN(CCO)C2)c(=O)c2cc3ccsc3n12` [Example 19, (R)—N-(1-(2-hydroxyethyl)piperidin-3-yl)-2-(8-isopropyl-5-oxothieno [3′,2′:4,5]pyrrolo[1,2-d][1,2,4]triazin-6(5H)-yl)acetamide compound with formaldehyde], the inhibition at 3 µM [1] was 27.7%, the inhibition at 10 µM [1] was -22.7% and the IC50 ([2]; LPS-primed) was 225 nM.

Molecule `O=C(Cn1nc(C2CC2)n2c(cc3ccsc32)c1=O)N[C@@H]1CCCN(C2CC2)C1` [Example 21, (R)-2-(8-cyclopropyl-5-oxothieno[3′,2′:4,5]pyrrolo[1,2-d][1,2,4]triazin-6(5H)-yl)-N-(1-cyclopropylpiperidin-3-yl)acetamide] has an inhibition at 3 µM [1] of 11.7%, an inhibition at 10 µM [1] of 13.5% and an IC50 ([2]; THP-1, LPS-primed) of 60 nM.

With `O=C(Cn1nc(C2CC2)n2c(cc3cc(Cl)sc32)c1=O)N[C@@H]1CCCN(C2CC2)C1` [Example 13, (R)-2-(2-chloro-8-cyclopropyl-5-oxothieno[3′,2′:4,5]pyrrolo[1,2-d][1,2,4]triazin-6(5H)-yl)-N-(1-cyclopropylpiperidin-3-yl)acetamide] the inhibition at 3 µM [1] was 5.2%, the inhibition at 10 µM [1] was 22.2% and the IC50 ([2]; THP-1, LPS-primed) was 168 nM.

In the case of `CC(C)c1nn(CC(=O)N[C@@H]2CCCN(CC(C)(C)O)C2)c(=O)c2cc3ccsc3n12` [Example 23, (R)—N-(1-(2-hydroxy-2-methylpropyl)piperidin-3-yl)-2-(8-isopropyl-5-oxothieno[3′,2′:4,5]pyrrolo[1,2-d][1,2,4]triazin-6(5H)-yl)acetamide formate], the inhibition at 3 µM [1] is reported as 1.8%, the inhibition at 10 µM [1] is reported as 3.3% and the IC50 ([2]; THP-1, LPS-primed) is reported as 311 nM.

`CC(C)c1nn(CC(=O)N[C@@H]2CCCN(CC3CCCC3)C2)c(=O)c2cc3ccsc3n12` [Example 17, (R)—N-(1-(cyclopentylmethyl)piperidin-3-yl)-2-(8-isopropyl-5-oxothieno[3′,2′:4,5]pyrrolo [1,2-d][1,2,4]triazin-6(5H)-yl)acetamide] was tested, and the inhibition at 3 µM [1] was 11.2%, the inhibition at 10 µM [1] was 31.4% and the IC50 ([2]; THP-1, LPS-primed) was 300 nM.

`CC(C)c1nn(CC(=O)N[C@@H]2CCCN(CC3CC3)C2)c(=O)c2cc3ccsc3n12` [Example 28, (R)—N-(1-(cyclopropylmethyl)piperidin-3-yl)-2-(8-isopropyl-5-oxothieno[3′,2′:4,5]pyrrolo [1,2-d][1,2,4]triazin-6(5H)-yl)acetamide formate] showed an inhibition at 3 µM [1] of 34.4%, an inhibition at 10 µM [1] of -45.5% and an IC50 ([2]; THP-1, LPS-primed) of 775 nM.

For `CC(C)c1nn(CC(=O)N[C@@H]2CCCN(C)C2)c(=O)c2cc3cc(Cl)sc3n12` [Example 5, (R)-2-(2-chloro-8-isopropyl-5-oxothieno[3′,2′:4,5]pyrrolo[1,2-d][1,2,4]triazin-6(5H)-yl)-N-(1-methylpiperidin-3-yl)acetamide 2,2,2-trifluoroacetate], the inhibition at 3 µM [1] was -18.2%, the inhibition at 10 µM [1] was -14.1% and the IC50 ([2]; THP-1, LPS-primed) was 1230 nM.

`CC(C)CN1CCC[C@@H](NC(=O)Cn2nc(C(C)C)n3c(cc4ccsc43)c2=O)C1` [Example 14, (R)—N-(1-isobutylpiperidin-3-yl)-2-(8-isopropyl-5-oxothieno[3′,2′:4,5]pyrrolo[1,2-d][1,2,4]triazin-6(5H)-yl)acetamide] showed an inhibition at 3 µM [1] of -0.5%, an inhibition at 10 µM [1] of -18.8% and an IC50 ([2]; THP-1, LPS-primed) of 237 nM.

`CC(C)c1nn(CC(=O)N[C@@H]2CCCN(C3CC3)C2)c(=O)c2cc3ccsc3n12` [Example 4, (R)—N-(1-cyclopropylpiperidin-3-yl)-2-(8-isopropyl-5-oxothieno[3′,2′:4,5]pyrrolo[1,2-d][1,2,4]triazin-6(5H)-yl)acetamide] gave an inhibition at 3 µM [1] of 21.5%, an inhibition at 10 µM [1] of 7.5% and an IC50 ([2]; THP-1, LPS-primed) of 54 nM.

With `C[C@H](O)CN1CCC[C@@H](NC(=O)Cn2nc(C3CC3)n3c(cc4ccsc43)c2=O)C1` [Example 22, 2-(8-cyclopropyl-5-oxothieno[3′,2′:4,5]pyrrolo[1,2-d][1,2,4]triazin-6(5H)-yl)-N—((R)-1-((S)-2-hydroxypropyl)piperidin-3-yl)acetamide] the inhibition at 3 µM [1] was -2.9%, the inhibition at 10 µM [1] was 14.5% and the IC50 ([2]; THP-1, LPS-primed) was 400 nM.

With `CC(C)c1nn(CC(=O)N[C@@H]2CCCN(C)C2)c(=O)c2cc3ccsc3n12` [Example 1, (R)-2-(8-isopropyl-5-oxothieno[3′,2′:4,5]pyrrolo[1,2-d][1,2,4]triazin-6(5H)-yl)-N-(1-methylpiperidin-3-yl)acetamide] the inhibition at 3 µM [1] was -5.1%, the inhibition at 10 µM [1] was -17.7% and the IC50 ([2]; THP-1, LPS-primed) was 661 nM.

With `CC(C)c1nn(CC(=O)NC2CN(C)CC(F)(F)C2)c(=O)c2cc3ccsc3n12` (stereo not drawn) [Example 35, N-(5,5-difluoro-1-methylpiperidin-3-yl)-2-(8-isopropyl-5-oxothieno[3′,2′:4,5]pyrrolo[1,2-d][1,2,4]triazin-6(5H)-yl)acetamide] the inhibition at 3 µM [1] was 23% and the inhibition at 10 µM [1] was 5.7%.

Molecule `COCc1nn(CC(=O)N[C@@H]2CCCN(C3CCC3)C2)c(=O)c2cc3cc(Cl)sc3n12` [Example 29, (R)-2-(2-chloro-8-(methoxymethyl)-5-oxothieno[3′,2′:4,5]pyrrolo[1,2-d][1,2,4]triazin-6(5H)-yl)-N-(1-cyclobutylpiperidin-3-yl)acetamide formate] has an IC50 ([2]; THP-1, LPS-primed) of 1140 nM.

In the case of `CC(C)c1nn(CC(=O)NC2CCNC(=O)C2)c(=O)c2cc3ccsc3n12` (stereo not drawn) [Example 85, 2-(12-isopropyl-9-oxo-3-thia-1,10,11-triazatricyclo[6.4.0.02,6]dodeca-2(6),4,7,11-tetraen-10-yl)-N-(2-oxo-4-piperidyl)acetamide], the IC50 ([2]; THP-1, LPS-primed) is reported as greater than 10000 nM.

For `CC(C)c1nn(CC(=O)Nc2ccc3scnc3c2)c(=O)c2cc3ccsc3n12` [Example 15, N-(benzo[d]thiazol-5-yl)-2-(8-isopropyl-5-oxothieno[3′,2′:4,5]pyrrolo[1,2-d][1,2,4]triazin-6(5H)-yl)acetamide], the IC50 ([2]; THP-1, LPS-primed) was 2740 nM.

For `CC(=O)N1CCC[C@@H](NC(=O)Cn2nc(C(C)C)n3c(cc4ccsc43)c2=O)C1` [Example 42, (R)—N-(1-acetylpiperidin-3-yl)-2-(8-isopropyl-5-oxothieno[3′,2′:4,5]pyrrolo[1,2-d][1,2,4]triazin-6(5H)-yl)acetamide], the IC50 ([2]; THP-1, LPS-primed) was 1150 nM.

With `CC(C)c1nn(CC(=O)NCC2CC(=O)N(C(C)(C)C)C2)c(=O)c2cc3ccsc3n12` (stereo not drawn) [Example 55, N-[(1-tert-butyl-5-oxo-pyrrolidin-3-yl)methyl]-2-(12-isopropyl-9-oxo-3-thia-1,10,11-triazatricyclo[6.4.0.02,6]dodeca-2(6),4,7,11-tetraen-10-yl)acetamide] the IC50 ([2]; THP-1, LPS-primed) was 3230 nM.

In the case of `CC(C)c1nn(CC(=O)Nc2ncncc2F)c(=O)c2cc3ccsc3n12` [Example 70, N-(5-fluoropyrimidin-4-yl)-2-(12-isopropyl-9-oxo-3-thia-1,10,11-triazatricyclo[6.4.0.02,6]dodeca-2(6),4,7,11-tetraen-10-yl)acetamide], the IC50 ([2]; THP-1, LPS-primed) is reported as 148 nM.

`COCc1nn(CC(=O)N[C@@H]2CCCN(C3CC3)C2)c(=O)c2cc3ccsc3n12` [Example 33, (R)—N-(1-cyclopropylpiperidin-3-yl)-2-(8-(methoxymethyl)-5-oxothieno[3′,2′:4,5]pyrrolo[1,2-d][1,2,4]triazin-6(5H)-yl)acetamide 2,2,2-trifluoroacetate] showed an IC50 ([2]; THP-1, LPS-primed) of 2750 nM.

`CC(C)c1nn(CC(=O)Nc2cncnc2)c(=O)c2cc3ccsc3n12` [Example 84, 2-(8-isopropyl-5-oxothieno[3′,2′:4,5]pyrrolo[1,2-d][1,2,4]triazin-6(5H)-yl)-N-pyrimidin-5-ylacetamide] showed an IC50 ([2]; THP-1, LPS-primed) of 5950 nM.

`CC(C)c1nn(CC(=O)NC2CC3(C2)CN(C)C3)c(=O)c2cc3ccsc3n12` [Example 83, N-(2-methyl-2-azaspiro[3.3]heptan-6-yl)-2-(8-isopropyl-5-oxothieno[3′,2′:4,5]pyrrolo[1,2-d][1,2,4]triazin-6(5H)-yl)acetamide] was tested, and the IC50 ([2]; THP-1, LPS-primed) was 1880 nM.

For `CC(C)c1nn(CC(=O)NC2CN(C)CC(F)(F)C2)c(=O)c2cc3cc(Cl)sc3n12` (stereo not drawn) [Example 34, 2-(2-chloro-8-isopropyl-5-oxothieno[3′,2′:4,5]pyrrolo[1,2-d][1,2,4]triazin-6(5H)-yl)-N-(5,5-difluoro-1-methylpiperidin-3-yl)acetamide 2,2,2-trifluoroacetate], the IC50 ([2]; THP-1, LPS-primed) was 6160 nM.
